In patent US20220002674A1, “T CELLS WITH SUICIDE SWITCH” (priority 2018, published 2022):

Tests used:
AOS-1 cells = assay: speed of elimination of low-, medium- and high-CD19 populations in mice after rimiducid (FIG. 27); assay type: in vivo; conditions: 5 mg/kg rimiducid on day 0, 1.5×10^7 AOS-1 cells on day −1
Text: Figures are means from 40 mice.
Further experiments looked at the speed of elimination of low-CD19, medium-CD19 and high-CD19 populations after administration of rimiducid.

[1] = human, in vivo; cited from earlier work
AOS-1 T cells = assay: 4-hour apoptosis assay with 10 nM rimiducid on AOS-1 T cells sorted by CD19 intensity; assay type: cell-based, human; conditions: for CD19+ specific killing: low-CD19 sorted cells; for median killing efficacy: 10 nM, 4 hours
Experimental: To measure apoptosis 5×10^5 cells were plated per 48-well, and rimiducid was added at a concentration of 10 nM in a 4-hour assay. Phenotyping and functional assays (e.g., apoptosis) were performed by flow cytometry, qPCR and Western blot before and after T cell reactivation using anti-CD3/anti-CD28 antibodies. The phenotype of the cells was determined by staining cells for flow cytometry analysis with anti-CD3, anti-CD4, anti-CD8, anti-CD19, anti-CD45RA, anti-CD45RO, and anti-CCR7 antibodies. Terminal effector memory cells are defined as CD45RA^+CD45RO^−CCR7^−. T effector memory cells are defined as CD45RA^−CD45RO^+CCR7^−. T central memory cells are defined as CD45RA^−CD45RO^+CCR7^+. Naïve T cells are defined as CD45RA^+CD45RO^−CCR7^+. Diversity of the T cell receptor repertoire was assessed by flow cytometry.

[2] = tested on: genetically-modified T cells; assay: rimiducid dose that eliminates infused genetically-modified T cells; assay type: in vivo; conditions: cells infused at 1.5×10^7 cells/kg
[3] = tested on: CD3+CD19+ cells (iC9+ T cells); assay: flow cytometric analysis of cells harvested from spleens 48 h post drug treatment; assay type: in vivo, NSG mice; conditions: for reduction of CD3+CD19+ cells in spleen: 48 h, compared to vehicle
Experimental: (§1) In vivo studies were performed by i.v. injection of control or gene-modified T cells co-expressing luciferase into NSG mice. 1×10^7 EGFPluc+ iC9-T cells were infused into NSG mice. T cell bioluminescence was measured at 2 and 24 hours after infusion, followed by i.p. injection of a titrated dose of rimiducid or placebo (control drug). The animals were administered either control drug (temsirolimus; 1 mg/kg), rimiducid (0.001-1 mg/kg), or vehicle. Remaining T cell bioluminescence was measured at 6, 24 and 48 hours after drug administration. Bioluminescent imaging and flow cytometry were performed to assess in vivo depletion following iC9 activation.
FIG. 18 depicts a flow cytometric analysis of cells harvested from spleens 48 h post drug treatment.

[4] = tested on: WT1, PRAME, MAGE, NE and PR3; assay: IFN-γ ELIspot for LAA-specific T cells against peptide pools; assay type: cell-based, human; conditions: 10 nM rimiducid
Experimental: PBMCs were mixed with pre-warmed (37° C.) cell culture media and centrifuged cells at […] for 10′ at 4° C. Cells were resuspended and counted using Cellometer. Cells were then centrifuged again at 1200 rpm for 10′. The cells were then resuspended in culture media at a concentration of 1×10^6/mL and 100 μL were added per well. 100 μL of 2X peptide stock or PHA were added to the desired wells. The plates were mixed gently for 2′. The plates were transferred to a 37° C. incubator with 5% CO2 and incubated for 18-24 hours. 100 μL capture anti-IFNγ antibody was added to each PBS-pre wetted well. The plates were then incubated at 4±3° C. overnight. After incubation the plates were washed 3 times with 200 μL D-PBS. Unbound sites were blocked with 100 μL D-PBS containing 10% culture media for 120+15 minutes at room temperature in a BSC. The plates were then washed 3 times with 200 μL D-PBS. 200 μL D-PBS were added into the wells. The plates were left at room temperature until the cells are ready. When cells were ready plates were removed from the incubator and the wells rinsed 2 times with tap water. The plates were then washed 5 times with D-PBS, containing 0.05% Tween 20. The wells and well bottoms were rinsed with distilled water. […] Plates were left to dry at room temperature before reading on an ELISpot reader.

EGFPluc+ iC9-T cells = assay: T cell bioluminescence (IVIS) in NSG mice after rimiducid; assay type: in vivo
Experimental: as §1
The maximal elimination effect in the kill switch induced by rimiducid was reached 24 hours post drug administration. The values for average radiance were normalized to the initial radiance in each mouse using the formula: D Average radiance=100*[Timepoint “X” radiance]/[Timepoint “0” radiance]. Error bars represents S.E.M. Two-way ANOVA test was used to assess statistical significance of differences in T cell radiance between multiple groups at different time points.

CD3+CD19+ T cells = assay: rimiducid treatment of patients engrafted with AOS-1 to control GvHD; assay type: in vivo, human
Experimental: Engraftment and persistence of the donor modified T cells were measured by co-expression of CD3 and CD19 by flow cytometry. Endogenous and gene-modified T cells were also phenotyped for CD4:CD8 ratios, memory cell composition (TN, TCM, TEM, TEMRA; CD45RA and CD62L) and T cell receptor Vβ diversity.

## CC[C@H](C(=O)N1CCCC[C@H]1C(=O)O[C@H](CCc1ccc(OC)c(OC)c1)c1cccc(OCC(=O)NCCNC(=O)COc2cccc([C@@H](CCc3ccc(OC)c(OC)c3)OC(=O)[C@@H]3CCCCN3C(=O)[C@@H](CC)c3cc(OC)c(OC)c(OC)c3)c2)c1)c1cc(OC)c(OC)c(OC)c1 (relative stereo) [rimiducid, 2-Piperidinecarboxylic acid, 1-[(2S)-1-oxo-2-(3,4,5-trimethoxyphenyl)butyl]-, 1,2-ethanediylbis[imino(2-oxo-2,1-ethanediyl)oxy-3,1-phenylene[(1R)-3-(3,4-dimethoxyphenyl)propylidene]] ester, [2S-[1(R*),2R*[S*[S*[1(R*),2R*]]]]]-(9CI)]
AOS-1 cells
  elimination of CD19-high cells: eliminated within half an hour
  elimination of CD19-low cells: declined more slowly
  elimination of CD19-medium cells: fell to near-zero within an hour
[1]
  safety in healthy volunteers: proven safe in healthy volunteers
AOS-1 T cells; all fractions after reactivation with anti-CD3/anti-CD28
  apoptosis: over 90%
AOS-1 T cells; high MFI of CD19 cells, 10 nM rimiducid, within 4 hours
  cells gone through apoptosis: more than 95%
AOS-1 T cells; after activation in vitro
  CD19+ specific killing: 97%
AOS-1 T cells; before activation
  CD19+ specific killing: 46%
AOS-1 T cells; sorted high CD19 cells
  median killing efficacy: 92%
AOS-1 T cells; sorted low CD19 cells
  median killing efficacy: 69%
AOS-1 T cells; sorted medium CD19 cells
  median killing efficacy: 87%
AOS-1 T cells; unstimulated high iC9-ΔCD19 cells
  killing: 86%
AOS-1 T cells; unstimulated low iC9-ΔCD19 cells
  killing: 50%
AOS-1 T cells; unstimulated medium iC9-ΔCD19 cells
  killing: 76%
[2]
  dose that can eliminate cells: 0.4 mg/kg
[3]; 0.01 mg/kg
  reduction of CD3+CD19+ cells in spleen: 99.6%
[3]; 0.1 mg/kg
  reduction of CD3+CD19+ cells in spleen: 98.6%
[3]; 1 mg/kg
  reduction of CD3+CD19+ cells in spleen: 89.6%
[3]; treated groups, down to 0.001 mg/kg
  MFI of CD19 in CD3+CD19+ cells: dose dependent decrease
[4]
  LAA-reactivity on exposure to rimiducid: greatly diminished
EGFPluc+ iC9-T cells; 0.01 mg/kg i.p., 6-hour
  reduction of relative total flux: 82.5%
EGFPluc+ iC9-T cells; 0.01 mg/kg i.p., 24-hour
  reduction of relative total flux: 90.5%
EGFPluc+ iC9-T cells; 0.01 mg/kg i.p., 48-hour
  reduction of relative total flux: 90.5%
EGFPluc+ iC9-T cells; 0.1 mg/kg i.p., 6-hour
  reduction of relative total flux: 92.5%
EGFPluc+ iC9-T cells; 0.1 mg/kg i.p., 24-hour
  reduction of relative total flux: 95.5%
EGFPluc+ iC9-T cells; 0.1 mg/kg i.p., 48-hour
  reduction of relative total flux: 95.3%
EGFPluc+ iC9-T cells; 1 mg/kg i.p., 6-hour
  reduction of relative total flux: 96%
EGFPluc+ iC9-T cells; 1 mg/kg i.p., 24-hour
  reduction of relative total flux: 98.1%
EGFPluc+ iC9-T cells; 1 mg/kg i.p., 48-hour
  reduction of relative total flux: 98.1%
EGFPluc+ iC9-T cells; post drug administration
  time at which maximal elimination effect was reached: 24 h
CD3+CD19+ T cells; patients treated with rimiducid
  course of CD3+CD19+ T cells and GvHD after rimiducid: recovered without further instances of GvHD
CD3+CD19+ T cells; three patients with GvHD
  decrease of CD3+CD19+ T cells in the peripheral blood: 62±12%
